Measured values taken from PMC4900804, “Allosteric modulation in monomers and oligomers of a G protein-coupled receptor” (eLife, 2016).
Residue numbers refer to the chain shown, from its start. Values joined by “and” are separate entries in the source; they are usually repeats but may differ in a detail not shown here. Identical values can stand only once. Like-named read-outs stand apart in the source and are kept apart here.

What was measured:
[1] = biological target: T1, FlAsH-reacted mCh-M2-FCM in CHO cells (Homo sapiens, UniProt P08172, INS166FLNCCPGCCMEP); assay: FRET between FlAsH and mCherry in the sensor, ligand-dependent change in Eapp; format: cell-based; details: ligand 1 mM
T1 sequence (P08172 with tags, fused parts or gaps): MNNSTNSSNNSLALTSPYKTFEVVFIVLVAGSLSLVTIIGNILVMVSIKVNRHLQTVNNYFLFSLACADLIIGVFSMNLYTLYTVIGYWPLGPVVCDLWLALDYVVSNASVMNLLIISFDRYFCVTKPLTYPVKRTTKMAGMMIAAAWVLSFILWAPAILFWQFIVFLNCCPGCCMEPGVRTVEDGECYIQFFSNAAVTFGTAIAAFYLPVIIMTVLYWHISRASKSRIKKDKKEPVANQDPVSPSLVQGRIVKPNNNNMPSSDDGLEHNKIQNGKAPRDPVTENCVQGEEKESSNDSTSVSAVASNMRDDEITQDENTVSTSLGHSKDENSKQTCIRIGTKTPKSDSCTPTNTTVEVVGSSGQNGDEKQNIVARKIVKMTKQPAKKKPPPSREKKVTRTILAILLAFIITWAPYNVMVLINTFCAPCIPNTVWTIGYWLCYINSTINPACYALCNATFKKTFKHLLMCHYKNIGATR

[2] = biological target: T2, eGFP-M2 solubilized in digitonin–cholate (Homo sapiens, UniProt P08172); assay: Time-resolved fluorescence and fluorescence anisotropy of eGFP-tagged M2 receptor; details: eGFP-M2 + carbachol 1 mM
T2 sequence (P08172 1-466): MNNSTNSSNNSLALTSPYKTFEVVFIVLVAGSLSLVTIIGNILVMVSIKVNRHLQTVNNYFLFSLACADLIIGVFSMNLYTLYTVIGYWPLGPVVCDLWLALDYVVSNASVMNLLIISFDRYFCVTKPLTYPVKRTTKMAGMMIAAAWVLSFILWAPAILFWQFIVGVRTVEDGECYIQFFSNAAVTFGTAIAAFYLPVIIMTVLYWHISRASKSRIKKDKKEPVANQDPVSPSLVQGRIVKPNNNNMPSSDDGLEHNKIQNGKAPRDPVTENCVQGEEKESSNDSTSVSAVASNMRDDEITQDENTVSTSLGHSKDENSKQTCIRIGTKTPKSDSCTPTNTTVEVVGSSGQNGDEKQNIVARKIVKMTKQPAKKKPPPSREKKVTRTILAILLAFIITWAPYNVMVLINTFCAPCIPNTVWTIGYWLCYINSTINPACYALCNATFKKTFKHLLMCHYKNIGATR

[3] = biological target: T3, copurified heteromer of M2-ECL2+ve and M2-D103A (Homo sapiens, UniProt P08172, D103A/D173R/E172K/E175K); assay: Effect of gallamine on the binding of [3H]NMS to purified hetero-oligomers; details: [3H]NMS 10 nM; 21 hr at 30°C
T3 construct: hexahistidine (His6) (N); made in house; host or cells: co-transfected CHO cells; purified on Ni2+-NTA and anti-FLAG resins
T3 sequence (P08172 1-466 E172K/D173R/E175K): T2 sequence (P08172 1-466) with E172K, D173R, E175K
T3 sequence (P08172 1-466 D103A): T2 sequence (P08172 1-466) with D103A

[4] = system: M2 receptor in Sf9 membranes; details: cited from earlier work
[5] = biological target: T4, M2 receptor monomers purified from Sf9 cells (Homo sapiens, UniProt P08172); assay: Effect of allosteric modulators on the binding of [3H]NMS to purified monomers
T4 sequence (P08172 1-466): T2 sequence (P08172 1-466)

[6] = biological target: T4, M2 receptor monomers purified from Sf9 cells; format: binding
[7] = biological target: M2 receptors extracted from porcine sarcolemmal membranes (Sus scrofa, UniProt P06199)
Sequence of M2 receptors extracted from porcine sarcolemmal membranes (P06199 whole entry): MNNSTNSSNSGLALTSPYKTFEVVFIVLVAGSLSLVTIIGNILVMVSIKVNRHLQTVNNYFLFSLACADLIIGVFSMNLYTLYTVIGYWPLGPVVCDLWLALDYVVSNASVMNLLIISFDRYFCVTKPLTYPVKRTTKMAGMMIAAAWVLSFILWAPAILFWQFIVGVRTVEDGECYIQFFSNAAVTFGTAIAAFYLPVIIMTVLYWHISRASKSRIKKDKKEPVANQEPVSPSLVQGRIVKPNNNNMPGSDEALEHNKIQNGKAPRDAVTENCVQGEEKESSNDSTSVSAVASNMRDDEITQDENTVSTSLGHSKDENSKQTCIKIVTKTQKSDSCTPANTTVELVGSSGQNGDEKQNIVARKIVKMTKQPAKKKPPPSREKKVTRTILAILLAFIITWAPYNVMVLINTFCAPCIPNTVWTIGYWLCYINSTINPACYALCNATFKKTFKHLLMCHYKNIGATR

[8] = biological target: M2 receptor in membranes from CHO cells (Homo sapiens, UniProt P08172)
[9] = system: M2 receptors (alanine for aspartic acid at position 103) in HEK293 membranes; details: cited from earlier work
[10] = biological target: mCh-M2(D103A)-FCM (human) (UniProt P08172)
[11] = gallamine, [3H]NMS 10 nM, 21 h at 30 °C, n = 1

## C[N+](C)(C)CCOC(N)=O [carbachol]
[1]
  ∆Eapp, mean change in FRET efficiency ± S.D.: −21.6 ± 11.2%
[2]
  Fluorescence lifetime (τ): 2.5 ± 0.1 ns
  Rotational correlation time (φ): 43 ± 5 ns

## CC[N+](CC)(CC)CCOc1cccc(OCC[N+](CC)(CC)CC)c1OCC[N+](CC)(CC)CC [gallamine]
[3]
  log K2 (Equation 2, n = 3): 4.29 ± 0.37
[4]
  log K1 (Equation 2), dose-dependence of kobsd/k0: −5.99 ± 0.31
  log K2 (Equation 2), dose-dependence of kobsd/k0: −4.35 ± 0.03
[5]; [11]
  F1: 1.00
  nH(1): 1.00 ± 0.06
[6]
  F1: 1.00

## O=C1C[C@@H]2OCC=C3CN4CC[C@]56c7ccccc7N1[C@H]5[C@H]2[C@H]3C[C@H]46 [strychnine]
[7]
  F2: 1.57 and 2
[5]
  F1: 1.00
  nH(1): 0.62 ± 0.07 and 1.23 ± 0.07
[8]
  F2: 2.21 ± 0.16
  nH(1): 0.72 ± 0.06 and 0.98 ± 0.14 and 1.20 ± 0.07
  nH(2): 1.44 ± 0.09 and 1.07 ± 0.08

## N-[^3H]methylscopolamine [[^3H]NMS]
[9]
  specific binding of radioligand: prevent the specific binding

## eGFP-M2 (from UniProt P08172 1-466) (receptor)
[10]
  NMS (1 μM)-dependent increase in the FRET efficiency between FlAsH and mCherry of the binding-deficient sensor in CHO cells that display eGFP, FlAsH and mCherry (percentage points): 5.3
